Laboratory results taken from ChEMBL document CHEMBL1201862, “PubChem BioAssay data set” (2004).
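Results reflect a 48-hour exposure of cells in 96-well plates to compound at five concentrations. Abbreviation: GI50, concentration required for 50% inhibition of growth.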 The source made the active and inactive calls. No stated cut-off is given here; in the data, active = GI50 up to about 1.1 µM and inactive = higher. Positions of bridges follow the written chain, without caps; N, C: chain ends. Non-standard residues stand in square brackets, D forms with d. Residues, ends and D or L forms follow the SMILES beside them. *: point of attachment. PhAc = O=C(Cc1ccccc1)*

What was measured:
Test in all cases: DTP human tumour cell line panel, 48 h
SK-MEL-5 = system: SK-MEL-5
SK-OV-3 = system: SK-OV-3
HOP-92 = system: HOP-92
OVCAR-8 = system: OVCAR-8
OVCAR-3 = system: OVCAR-3
A549 = system: A549
IGROV-1 = system: IGROV-1
UACC-257 = system: UACC-257
Hs-578T = system: Hs-578T
SN12C = system: SN12C
HCT-116 = system: HCT-116
SNB-75 = system: SNB-75
SF-539 = system: SF-539
T47D = system: T47D
SNB-19 = system: SNB-19
K562 = system: K562
NCI-H226 = system: NCI-H226
CAKI-1 = system: CAKI-1
NCI-H23 = system: NCI-H23
A498 = system: A498

Row | Structure (SMILES) | GI50 (SK-MEL-5) | GI50 (SK-OV-3) | GI50 (HOP-92) | GI50 (OVCAR-8) | GI50 (OVCAR-3) | GI50 (A549) | GI50 (IGROV-1) | GI50 (UACC-257) | GI50 (Hs-578T) | GI50 (SN12C) | GI50 (HCT-116) | GI50 (SNB-75) | GI50 (SF-539) | GI50 (T47D) | GI50 (SNB-19) | GI50 (K562) | GI50 (NCI-H226) | GI50 (CAKI-1) | GI50 (NCI-H23) | GI50 (A498)
1 | O=C(CSCC(=O)N/N=C\c1ccc(-c2ccccc2)cc1)N/N=C\c1ccc(-c2ccccc2)cc1 | 39.9 µM (inactive) | 18.9 µM (inactive) | 45.6 µM (inactive) | 24.6 µM (inactive) | 16.1 µM (inactive) | 25.8 µM (inactive) | 11.8 µM (inactive) | 35.7 µM (inactive) | 18.3 µM (inactive) | 24.7 µM (inactive) | 9.27 µM (inactive) | 16.3 µM (inactive) | 19.4 µM (inactive) | 34.9 µM (inactive) | 26.2 µM (inactive) | 25.8 µM (inactive) | 28.8 µM (inactive) | 40.5 µM (inactive) | 17.8 µM (inactive) | 
2 | Cc1cn([C@H]2C[C@@H]3[C@@H](COC(CCl)N3O)O2)c(=O)[nH]c1=O (stereo partly drawn) | > 100 µM (inactive) | > 100 µM (inactive) |  | > 100 µM (inactive) | > 100 µM (inactive) | > 100 µM (inactive) | > 100 µM (inactive) | > 100 µM (inactive) | > 100 µM (inactive) | > 100 µM (inactive) | > 100 µM (inactive) | 87.9 µM (inactive) | > 100 µM (inactive) | > 100 µM (inactive) | > 100 µM (inactive) | > 100 µM (inactive) | > 100 µM (inactive) | > 100 µM (inactive) |  | > 100 µM (inactive)
3 | Oc1ccc2c(c1)-c1c(c3ccccc3n1CCN1CCOCC1)CC2 | 40.6 µM (inactive) | 27.5 µM (inactive) |  | 33.2 µM (inactive) | 33.5 µM (inactive) |  | 15.3 µM (inactive) | 27.9 µM (inactive) | 63.4 µM (inactive) | > 100 µM (inactive) | 31.4 µM (inactive) | 27 µM (inactive) | 46 µM (inactive) | 84.7 µM (inactive) | 38.6 µM (inactive) | > 100 µM (inactive) | 24.6 µM (inactive) | 32.6 µM (inactive) | 27.9 µM (inactive) | > 100 µM (inactive)
4 | COc1cc2ccnc3c2c(c1OC)N(C)C=C3 |  | 16.5 µM (inactive) |  | 26.5 µM (inactive) | 29.4 µM (inactive) | 17.7 µM (inactive) |  | 34.4 µM (inactive) | 29.3 µM (inactive) | 30.4 µM (inactive) | 11 µM (inactive) | 33.6 µM (inactive) |  | 32.3 µM (inactive) | 25.2 µM (inactive) | 21.1 µM (inactive) | 21.2 µM (inactive) | 21.3 µM (inactive) | 19.4 µM (inactive) | 36.1 µM (inactive)
5 | NNC(=O)C(O)C(O)C(=O)NN (stereo not drawn) | > 100 µM (inactive) | > 100 µM (inactive) |  | > 100 µM (inactive) | > 100 µM (inactive) | 66.4 µM (inactive) | > 100 µM (inactive) | > 100 µM (inactive) | > 100 µM (inactive) | > 100 µM (inactive) | 73.3 µM (inactive) | > 100 µM (inactive) |  | > 100 µM (inactive) | > 100 µM (inactive) | 36.1 µM (inactive) | > 100 µM (inactive) | > 100 µM (inactive) | > 100 µM (inactive) | > 100 µM (inactive)
6 | N#Cc1c(-c2ccc(F)cc2)c(-c2ccc(F)cc2)nn(CCO)c1=O | 0.175 µM (active) | 0.288 µM (active) | 1.91 µM (inactive) |  | 0.242 µM (active) | 0.25 µM (active) | 0.155 µM (active) | 1.19 µM (inactive) | 0.885 µM (active) | 0.27 µM (active) | 0.119 µM (active) | 0.183 µM (active) | 0.198 µM (active) | 2.33 µM (inactive) | 4.9 µM (inactive) | 0.103 µM (active) | 1.77 µM (inactive) | 1.53 µM (inactive) | 0.948 µM (active) | 
7 | O=C1Nc2ccccc2/C1=N/NC(=S)Nc1cccc(Cl)c1 | 4.57 µM (inactive) | 20.7 µM (inactive) | 18.7 µM (inactive) | 5.04 µM (inactive) | 2.68 µM (inactive) | 7.08 µM (inactive) | 17.2 µM (inactive) | 29.4 µM (inactive) | 33.4 µM (inactive) | 14.4 µM (inactive) | 3.49 µM (inactive) |  | 7 µM (inactive) | 48.9 µM (inactive) | 16.6 µM (inactive) | 4.7 µM (inactive) | 18 µM (inactive) | 8.3 µM (inactive) | 6.97 µM (inactive) | 4.03 µM (inactive)
8 | O=C(Cc1ccccc1)N[C@@H]1COC(=O)[C@@H]2CCCN2C(=O)[C@@H]2CCCN2C1=O (PhAc-[dS]-Pro-Pro; ester 1-C) | > 100 µM (inactive) | > 100 µM (inactive) | > 100 µM (inactive) | > 100 µM (inactive) | > 100 µM (inactive) | > 100 µM (inactive) | > 100 µM (inactive) | > 100 µM (inactive) | > 100 µM (inactive) | > 100 µM (inactive) | > 100 µM (inactive) | 0.0254 µM (active) | > 100 µM (inactive) | > 100 µM (inactive) | > 100 µM (inactive) |  |  | > 100 µM (inactive) | > 100 µM (inactive) | > 100 µM (inactive)
9 | C#CC(C)(C)Oc1cc(OC)c2c(=O)c3ccccc3n(C)c2c1 | 11.1 µM (inactive) | 23 µM (inactive) |  | 15.4 µM (inactive) |  | 9.86 µM (inactive) | 0.0238 µM (active) | 10.9 µM (inactive) | 17.5 µM (inactive) | 10 µM (inactive) | 17.4 µM (inactive) | 24.8 µM (inactive) | 26.1 µM (inactive) | 2.84 µM (inactive) | 14.7 µM (inactive) | 10.7 µM (inactive) | 16.6 µM (inactive) |  |  | 
10 | CC1CC(Br)C(=O)O1 (stereo not drawn) | > 100 µM (inactive) | > 100 µM (inactive) | > 100 µM (inactive) | > 100 µM (inactive) | > 100 µM (inactive) | > 100 µM (inactive) | > 100 µM (inactive) | > 100 µM (inactive) | > 100 µM (inactive) | > 100 µM (inactive) | > 100 µM (inactive) | 70 µM (inactive) | > 100 µM (inactive) | > 100 µM (inactive) | > 100 µM (inactive) | 47 µM (inactive) |  | > 100 µM (inactive) | > 100 µM (inactive) | > 100 µM (inactive)
11 | O=C(c1ccccc1)n1c(Cc2ccccc2)nc2cc(C34CC5CC(CC(C5)C3)C4)ccc21 | 27 µM (inactive) | 96.2 µM (inactive) | 24 µM (inactive) | 37.2 µM (inactive) |  | 37.7 µM (inactive) | 53.6 µM (inactive) | 53.1 µM (inactive) | > 100 µM (inactive) | 35.8 µM (inactive) | 44.3 µM (inactive) | 31.6 µM (inactive) |  | 36.7 µM (inactive) | 58.1 µM (inactive) | > 100 µM (inactive) | 58.3 µM (inactive) | > 100 µM (inactive) | 27.4 µM (inactive) | 62.1 µM (inactive)
12 | O=c1oc2ccccc2c(O)c1C1c2c(c3ccccc3oc2=O)Oc2c1c(=O)oc1ccccc21 | 21 µM (inactive) |  | 35.2 µM (inactive) | 32.1 µM (inactive) | 61.8 µM (inactive) |  | 35 µM (inactive) | 34.8 µM (inactive) | 46.8 µM (inactive) | 30.1 µM (inactive) | 36.6 µM (inactive) | 57.1 µM (inactive) |  | 38.4 µM (inactive) | 48.5 µM (inactive) | 33.7 µM (inactive) | 22.4 µM (inactive) | 30.3 µM (inactive) | 31.3 µM (inactive) | 49.5 µM (inactive)
13 | NNc1nc2ccccc2s1 | > 100 µM (inactive) |  | > 100 µM (inactive) | > 100 µM (inactive) |  | > 100 µM (inactive) | > 100 µM (inactive) | > 100 µM (inactive) | > 100 µM (inactive) | > 100 µM (inactive) | > 100 µM (inactive) | > 100 µM (inactive) | > 100 µM (inactive) | 55.2 µM (inactive) | > 100 µM (inactive) | > 100 µM (inactive) | > 100 µM (inactive) | > 100 µM (inactive) | > 100 µM (inactive) | > 100 µM (inactive)
14 | CCN(CC)C(=O)Cn1c(-c2ccccc2)cc2ccccc21 | 15.6 µM (inactive) | 40.8 µM (inactive) | 27.7 µM (inactive) | 35.9 µM (inactive) | > 100 µM (inactive) | 33 µM (inactive) | 60.8 µM (inactive) | 41.9 µM (inactive) | 33.5 µM (inactive) | 97.3 µM (inactive) | 24.8 µM (inactive) | 41.5 µM (inactive) | 34.4 µM (inactive) | 42 µM (inactive) | 42.8 µM (inactive) | 25.8 µM (inactive) | 42.7 µM (inactive) |  | 44.4 µM (inactive) | 
15 | O=c1[nH]cc(/N=C/c2cc(Cl)cc(Cl)c2O)c(=O)[nH]1 | 19.1 µM (inactive) | 24.7 µM (inactive) | 27.4 µM (inactive) | 43.1 µM (inactive) | 17.7 µM (inactive) | > 100 µM (inactive) | 17 µM (inactive) | 27.7 µM (inactive) | 21.4 µM (inactive) | 35.2 µM (inactive) | 20.6 µM (inactive) |  | 24.1 µM (inactive) | 21.7 µM (inactive) | 32.8 µM (inactive) | 27.8 µM (inactive) | 23.4 µM (inactive) | 24.6 µM (inactive) | 24.6 µM (inactive) | > 100 µM (inactive)
